Results published in patent publication US11166959B2, “Isofuranone compounds useful as HPK1 inhibitors” (BRISTOL-MYERS SQUIBB COMPANY, priority 2017, dated 2021).

Legend:
HPK1 = biological target: T1, HPK1 (Homo sapiens, UniProt Q92918); test: HPK1 Inhibition Assay (kinase reaction, Caliper capillary electrophoresis); assay type: biochemical; conditions: for IC50: 0.625 nM HPK1, 22 μM ATP, 11 concentrations, read-out: HPK1 IC50; for IRAK4/HPK1 Ratio: ratio of the IRAK4 IC50 value to the HPK1 IC50 value
T1 construct: purchased SignalChem M23-11G
T1 sequence (Q92918 1-346 limits assumed): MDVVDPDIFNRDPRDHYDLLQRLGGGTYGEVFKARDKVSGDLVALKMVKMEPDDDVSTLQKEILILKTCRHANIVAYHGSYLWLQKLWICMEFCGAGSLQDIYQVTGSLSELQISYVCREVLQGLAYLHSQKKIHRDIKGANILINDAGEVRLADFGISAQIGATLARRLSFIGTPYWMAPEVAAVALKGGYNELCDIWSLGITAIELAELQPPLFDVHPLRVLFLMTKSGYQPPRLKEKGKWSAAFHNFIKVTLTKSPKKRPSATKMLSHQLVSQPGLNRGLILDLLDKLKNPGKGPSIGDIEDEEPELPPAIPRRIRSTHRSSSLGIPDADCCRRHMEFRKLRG
Procedure: (§1) The reactions were incubated out for three hours and quenched with 1 mM EDTA solution. The reaction incubation time and enzyme concentration were optimized to obtain a maximum peptide substrate conversion of 20-30%. The reaction mixtures were analyzed by capillary electrophoresis on a Caliper LabChip EZ Reader to resolve phosphorylated and unphosphorylated peptide species and determine peptide substrate conversion. […] The compounds were dissolved in DMSO and evaluated at 11 concentrations to determine the IC50 values.

IRAK4 = biological target: T2, IRAK4 (Homo sapiens, UniProt Q9NWZ3); test: IRAK4 Inhibition Assay (kinase reaction, Caliper capillary electrophoresis); assay type: biochemical; conditions: 500 μM ATP, 11 concentrations
T2 construct: 1 nM IRAK4 (160-460); purchased SignalChem M24016
T2 sequence (Q9NWZ3 160-460): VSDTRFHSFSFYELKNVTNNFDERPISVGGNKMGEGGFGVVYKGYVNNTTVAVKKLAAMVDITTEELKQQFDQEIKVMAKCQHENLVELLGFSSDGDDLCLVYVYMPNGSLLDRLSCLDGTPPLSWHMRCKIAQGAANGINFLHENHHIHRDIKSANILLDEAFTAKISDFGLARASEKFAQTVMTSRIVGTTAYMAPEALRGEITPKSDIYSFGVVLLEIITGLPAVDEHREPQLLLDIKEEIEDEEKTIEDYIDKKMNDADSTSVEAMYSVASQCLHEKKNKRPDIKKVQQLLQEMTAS
Procedure: as §1, with “determine” for “determine the”

| Structure (SMILES) | IC50 (HPK1) | IRAK4/HPK1 Ratio (HPK1) | IC50 (IRAK4) |
| --- | --- | --- | --- |
| O=C1OCc2cc(Nc3ncc(-c4ncccn4)c(N[C@H](CO)c4ccccc4)n3)ccc21 [Example 1, 5-[(4′-{[(1S)-2-hydroxy-1-phenylethyl]amino}-[2,5′-bipyrimidine]-2′-yl)amino]-1,3-dihydro-2-benzofuran-1-one] | < 50 nM | B (B=10 to 50) | 250 to 1000 nM |
| CC1(C)OC(=O)c2ccc(Nc3ncc(C(=O)NCC4CC(F)(F)C4)c(N[C@H](CO)c4ccccc4)n3)cc21 [Example 4, N-[(3,3-difluorocyclobutyl)methyl]-2-[(3,3-dimethyl-1-oxo-1,3-dihydro-2-benzofuran-5-yl)amino]-4-{[(1S)-2-hydroxy-1-phenylethyl]amino}pyrimidine-5-carboxamide] | < 50 nM | B (B=10 to 50) | 250 to 1000 nM |
| CN(C)CCCNC(=O)c1cnc(Nc2ccc3c(c2)C(C)(C)OC3=O)nc1N[C@H](CO)c1ccccc1 [Example 5, 2-[(3,3-dimethyl-1-oxo-1,3-dihydro-2-benzofuran-5-yl)amino]-N-[3-(dimethylamino)propyl]-4-{[(1S)-2-hydroxy-1-phenylethyl]amino}pyrimidine-5-carboxamide] | < 50 nM | B (B=10 to 50) | 250 to 1000 nM |
| CC1(C)OC(=O)c2ccc(Nc3ncc(C(=O)NCCCN4CCOCC4)c(N[C@H](CO)c4ccccc4)n3)cc21 [Example 7, 2-[(3,3-dimethyl-1-oxo-1,3-dihydro-2-benzofuran-5-yl)amino]-4-{[(1S)-2-hydroxy-1-phenylethyl]amino}-N-[3-(morpholin-4-yl)propyl]pyrimidine-5-carboxamide] | < 50 nM | B (B=10 to 50) | 250 to 1000 nM |
| COCCNC(=O)c1cnc(Nc2ccc3c(c2)C(C)(C)OC3=O)nc1N[C@H](CO)c1ccccc1 [Example 8, 2-[(3,3-dimethyl-1-oxo-1,3-dihydro-2-benzofuran-5-yl)amino]-4-{[(1S)-2-hydroxy-1-phenylethyl]amino}-N-(2-methoxyethyl)pyrimidine-5-carboxamide] | < 50 nM | B (B=10 to 50) | 50 to 250 nM |
| CN(C)CCNC(=O)c1cnc(Nc2ccc3c(c2)C(C)(C)OC3=O)nc1N[C@H](CO)c1ccccc1 [Example 9, 2-[(3,3-dimethyl-1-oxo-1,3-dihydro-2-benzofuran-5-yl)amino]-N-[2-(dimethylamino)ethyl]-4-{[(1S)-2-hydroxy-1-phenylethyl]amino}pyrimidine-5-carboxamide] | < 50 nM | B (B=10 to 50) | 250 to 1000 nM |
| CC(C)(C)NC(=O)c1cnc(Nc2ccc3c(c2)C(C)(C)OC3=O)nc1N[C@H](CO)c1ccccc1 [Example 11, N-tert-butyl-2-[(3,3-dimethyl-1-oxo-1,3-dihydro-2-benzofuran-5-yl)amino]-4-{[(1S)-2-hydroxy-1-phenylethyl]amino}pyrimidine-5-carboxamide] | < 50 nM | B (B=10 to 50) | 250 to 1000 nM |
| CC1(C)OC(=O)c2ccc(Nc3ncc(C(=O)NCCCn4ccnc4)c(N[C@H](CO)c4ccccc4)n3)cc21 [Example 19, 2-[(3,3-dimethyl-1-oxo-1,3-dihydro-2-benzofuran-5-yl)amino]-4-{[(1S)-2-hydroxy-1-phenylethyl]amino}-N-[3-(1H-imidazol-1-yl)propyl]pyrimidine-5-carboxamide] | < 50 nM | B (B=10 to 50) | 250 to 1000 nM |
| CC1(C)OC(=O)c2ccc(Nc3ncc(C(=O)NC4CCN(Cc5ccccc5)C4)c(N[C@H](CO)c4ccccc4)n3)cc21 (stereo partly drawn) [Example 22, N-(1-benzylpyrrolidin-3-yl)-2-[(3,3-dimethyl-1-oxo-1,3-dihydro-2-benzofuran-5-yl)amino]-4-{[(1S)-2-hydroxy-1-phenylethyl]amino}pyrimidine-5-carboxamide] | < 50 nM | C (C=>50) | 250 to 1000 nM |

Further lines, results first:

| IC50 (HPK1) | IRAK4/HPK1 Ratio (HPK1) | IC50 (IRAK4) | Structure (SMILES) |
| --- | --- | --- | --- |
| < 50 nM | B (B=10 to 50) | 50 to 250 nM | CC1(C)OC(=O)c2ccc(Nc3ncc(C(=O)NCc4ccccn4)c(N[C@H](CO)c4ccccc4)n3)cc21 [Example 6, 2-[(3,3-dimethyl-1-oxo-1,3-dihydro-2-benzofuran-5-yl)amino]-4-{[(1S)-2-hydroxy-1-phenylethyl]amino}-N-[(pyridin-2-yl)methyl]pyrimidine-5-carboxamide] |
| < 50 nM | C (C=>50) | 250 to 1000 nM | CC1(C)OC(=O)c2ccc(Nc3ncc(C(=O)NCc4ccccc4)c(N[C@H](CO)c4ccccc4)n3)cc21 [Example 10, N-benzyl-2-[(3,3-dimethyl-1-oxo-1,3-dihydro-2-benzofuran-5-yl)amino]-4-{[(1S)-2-hydroxy-1-phenylethyl]amino}pyrimidine-5-carboxamide] |
| < 50 nM | B (B=10 to 50) | 250 to 1000 nM | CC(C)CNC(=O)c1cnc(Nc2ccc3c(c2)C(C)(C)OC3=O)nc1N[C@H](CO)c1ccccc1 [Example 12, 2-[(3,3-dimethyl-1-oxo-1,3-dihydro-2-benzofuran-5-yl)amino]-4-{[(1S)-2-hydroxy-1-phenylethyl]amino}-N-(2-methylpropyl)pyrimidine-5-carboxamide] |
| 50 to 250 nM | B (B=10 to 50) | 250 to 1000 nM | CC(NC(=O)c1cnc(Nc2ccc3c(c2)C(C)(C)OC3=O)nc1N[C@H](CO)c1ccccc1)c1ccccc1 (stereo partly drawn) [Example 15, 2-[(3,3-dimethyl-1-oxo-1,3-dihydro-2-benzofuran-5-yl)amino]-4-{[(1S)-2-hydroxy-1-phenylethyl]amino}-N-(1-phenylethyl)pyrimidine-5-carboxamide] |
| 50 to 250 nM | B (B=10 to 50) | 250 to 1000 nM | Cc1ccccc1CNC(=O)c1cnc(Nc2ccc3c(c2)C(C)(C)OC3=O)nc1N[C@H](CO)c1ccccc1 [Example 16, 2-[(3,3-dimethyl-1-oxo-1,3-dihydro-2-benzofuran-5-yl)amino]-4-{[(1S)-2-hydroxy-1-phenylethyl]amino}-N-[(2-methylphenyl)methyl]pyrimidine-5-carboxamide] |
| 50 to 250 nM | B (B=10 to 50) | 250 to 1000 nM | CC1(C)OC(=O)c2ccc(Nc3ncc(C(=O)N[C@H]4C[C@@H]4c4ccccc4)c(N[C@H](CO)c4ccccc4)n3)cc21 [Example 17, 2-[(3,3-dimethyl-1-oxo-1,3-dihydro-2-benzofuran-5-yl)amino]-4-{[(1S)-2-hydroxy-1-phenylethyl]amino}-N-[(1S,2R)-2-phenylcyclopropyl]pyrimidine-5-carboxamide] |
| < 50 nM | B (B=10 to 50) | 250 to 1000 nM | Cc1cnc(CNC(=O)c2cnc(Nc3ccc4c(c3)C(C)(C)OC4=O)nc2N[C@H](CO)c2ccccc2)cn1 [Example 20, 2-[(3,3-dimethyl-1-oxo-1,3-dihydro-2-benzofuran-5-yl)amino]-4-{[(1S)-2-hydroxy-1-phenylethyl]amino}-N-[(5-methylpyrazin-2-yl)methyl]pyrimidine-5-carboxamide] |
| < 50 nM | B (B=10 to 50) | 250 to 1000 nM | C#CCNC(=O)c1cnc(Nc2ccc3c(c2)C(C)(C)OC3=O)nc1N[C@H](CO)c1ccccc1 [Example 21, 2-[(3,3-dimethyl-1-oxo-1,3-dihydro-2-benzofuran-5-yl)amino]-4-{[(1S)-2-hydroxy-1-phenylethyl]amino}-N-(prop-2-yn-1-yl)pyrimidine-5-carboxamide] |
